Data: patent publication US8895547B2, “Substituted phenyl-oxathiazine derivatives, method for producing them, drugs containing said compounds and the use thereof” (Sanofi, priority 2011, dated 2014)

biological target: T1, human 11β-HSD1 (Homo sapiens, UniProt P28845); test: Enzymatic 11beta-HSD1 test (SPA-based detection); type: biochemical; conditions: human 11β-HSD1 microsome fraction, [1,2-3H]-cortisone, NADPH, 37° C. 1 hour
T1 construct: host or cells: microsome fraction
Summary of the method: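 Human 11β-HSD1 microsomes (0.2 µg protein) converted [1,2-3H]-cortisone ([…]) for 1 h at 37 °C. The reaction buffer was HEPES/KCl/NaCl/MgCl2 with 0.25 mM NADPH, with compounds added in DMSO. The reaction was stopped with SPA beads, anti-cortisol monoclonal antibody and 0.01 mM SSR110887; after 1 h at room temperature, [3H]-cortisol was scintillation-counted.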

T1 sequence (P28845 whole entry): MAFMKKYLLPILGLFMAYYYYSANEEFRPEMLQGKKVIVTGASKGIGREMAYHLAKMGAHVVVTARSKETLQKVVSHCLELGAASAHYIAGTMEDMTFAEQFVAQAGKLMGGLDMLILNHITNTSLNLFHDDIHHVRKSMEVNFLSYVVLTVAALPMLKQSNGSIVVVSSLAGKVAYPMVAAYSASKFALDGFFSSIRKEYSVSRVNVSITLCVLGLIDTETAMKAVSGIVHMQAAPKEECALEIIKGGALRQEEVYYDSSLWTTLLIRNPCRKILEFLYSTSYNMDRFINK

Row | Compound | IC50 [nM]
1 | CC(=O)Oc1ccc(C2C(C)(C)OC(N[C@@H](CCO)c3ccccc3F)=NS2(=O)=O)cc1 (stereo partly drawn) [Example 155, Acetic acid 4-{2-[(S)-1-(2-fluorophenyl)-3-hydroxy-propylamino]-6,6-dimethyl-4,4-dioxo-5,6-dihydro-4H-4lambda6-[1,4,3]oxathiazin-5-yl}-phenyl ester] | 17
2 | C[C@H](NC1=NS(=O)(=O)C(c2ccc(-c3cccc(C(N)=O)c3)cc2)C(C)(C)O1)c1ccccc1F (stereo partly drawn) [Example 156, 4′-{2-[(S)-1-(2-fluorophenyl)-ethylamino]-6,6-dimethyl-4,4-dioxo-5,6-dihydro-4H-4lambda6-[1,4,3]oxathiazin-5-yl}-biphenyl-3-carboxamide] | 12
3 | C[C@H](NC1=NS(=O)(=O)C(c2ccc(-c3ccc(C(N)=O)cc3)cc2)C(C)(C)O1)c1ccccc1F (stereo partly drawn) [Example 157, 4′-{2-[(S)-1-(2-fluorophenyl)-ethylamino]-6,6-dimethyl-4,4-dioxo-5,6-dihydro-4H-4lambda6-[1,4,3]oxathiazin-5-yl}-biphenyl-4-carboxamide] | 20
4 | C[C@H](NC1=NS(=O)(=O)C(c2ccc(C3CCNCC3)cc2)C(C)(C)O1)c1ccccc1F (stereo partly drawn) [Example 158, [6,6-Dimethyl-4,4-dioxo-5-(4-piperidin-4-yl-phenyl)-5,6-dihydro-4H-4lambda6-[1,4,3]oxathiazin-2-yl]-[(S)-1-(2-fluorophenyl)-ethyl]-amin] | 38
5 | C[C@H](NC1=NS(=O)(=O)C(c2ccc(C3CCN(C)CC3)cc2)C(C)(C)O1)c1ccccc1F (stereo partly drawn) [Example 159, {6,6-Dimethyl-5-[4-(1-methyl-piperidin-4-yl)-phenyl]-4,4-dioxo-5,6-dihydro-4H-4lambda6-[1,4,3]oxathiazin-2-yl}-[(S)-1-(2-fluorophenyl)-ethyl]-amine] | 108
6 | C[C@H](NC1=NS(=O)(=O)C(c2ccc(C3CCN(CCO)CC3)cc2)C(C)(C)O1)c1ccccc1F (stereo partly drawn) [Example 160, 2-[4-(4-{2-[(S)-1-(2-fluorophenyl)-ethylamino]-6,6-dimethyl-4,4-dioxo-5,6-dihydro-4H-4lambda6-[1,4,3]oxathiazin-5-yl}-phenyl)-piperidin-1-yl]-ethanol] | 64
7 | CC1(C)OC(N[C@@H](CCO)c2ccccc2F)=NS(=O)(=O)C1c1cccnc1 (stereo partly drawn) [Example 161, (S)-3-(6,6-Dimethyl-4,4-dioxo-5-pyridin-3-yl-5,6-dihydro-4H-4lambda6-[1,4,3]oxathiazin-2-ylamino)-3-(2-fluorophenyl)-propan-1-ol] | 11
8 | C[C@H](NC1=NS(=O)(=O)C(c2ccc(C(C)(C)O)cc2)C(C)(C)O1)c1ccccc1F (stereo partly drawn) [Example 162, 2-(4-{2-[(S)-1-(2-fluorophenyl)-ethylamino]-6,6-dimethyl-4,4-dioxo-5,6-dihydro-4H-4lambda6-[1,4,3]oxathiazin-5-yl}-phenyl)-propan-2-ol] | 52
9 | CC(=O)c1ccc(C2C(C)(C)OC(N[C@@H](C)c3ccccc3F)=NS2(=O)=O)cc1 (stereo partly drawn) [Example 163, 1-(4-{2-[(S)-1-(2-fluorophenyl)-ethylamino]-6,6-dimethyl-4,4-dioxo-5,6-dihydro-4H-4lambda6-[1,4,3]oxathiazin-5-yl}-phenyl)-ethanone] | 15
10 | C[C@H](NC1=NS(=O)(=O)C(c2ccc(-c3ccccc3)nc2)C(C)(C)O1)c1ccccc1F (stereo partly drawn) [Example 164, [6,6-Dimethyl-4,4-dioxo-5-(6-phenyl-pyridin-3-yl)-5,6-dihydro-4H-4lambda6-[1,4,3]oxathiazin-2-yl]-[(S)-1-(2-fluorophenyl)-ethyl]-amine] | 27
11 | CC1(C)OC(N[C@@H](CCO)c2ccccc2F)=NS(=O)(=O)C1c1ccc(-c2ccccc2)nc1 (stereo partly drawn) [Example 165, (S)-3-[6,6-Dimethyl-4,4-dioxo-5-(6-phenyl-pyridin-3-yl)-5,6-dihydro-4H-4lambda6-[1,4,3]oxathiazin-2-ylamino]-3-(2-fluorophenyl)-propan-1-ol] | 7
12 | C[C@H](NC1=NS(=O)(=O)C(c2ccc(-c3cnc(N4CCNCC4)nc3)cc2)C(C)(C)O1)c1ccccc1F (stereo partly drawn) [Example 166, {6,6-Dimethyl-4,4-dioxo-5-[4-(2-piperazin-1-yl-pyrimidin-5-yl)-phenyl]-5,6-dihydro-4H-4lambda6-[1,4,3]oxathiazin-2-yl}-[(S)-1-(2-fluorophenyl)-ethyl]-amine] | 4
13 | C[C@H](NC1=NS(=O)(=O)C(c2ccc(N3CCNCC3)cc2)C(C)(C)O1)c1ccccc1F (stereo partly drawn) [Example 167, [6,6-Dimethyl-4,4-dioxo-5-(4-piperazin-1-yl-phenyl)-5,6-dihydro-4H-4lambda6-[1,4,3]oxathiazin-2-yl]-[(S)-1-(2-fluorophenyl)-ethyl]-amine] | 122
14 | C[C@H](NC1=NS(=O)(=O)C(c2cccnc2)C(C)(C)O1)c1ccccc1F (stereo partly drawn) [Example 168, (6,6-Dimethyl-4,4-dioxo-5-pyridin-3-yl-5,6-dihydro-4H-4lambda6-[1,4,3]oxathiazin-2-yl)-[(S)-1-(2-fluorophenyl)-ethyl]-amine] | 21
15 | CC1(C)OC(N[C@@H](CCO)c2ccccc2F)=NS(=O)(=O)C1c1ccc(-c2cnc(N3CCNCC3)nc2)cc1 (stereo partly drawn) [Example 169, (S)-3-{6,6-Dimethyl-4,4-dioxo-5-[4-(2-piperazin-1-yl-pyrimidin-5-yl)-phenyl]-5,6-dihydro-4H-4lambda6-[1,4,3]oxathiazin-2-ylamino}-3-(2-fluoro-phenyl)-propan-1-ol] | 2
16 | C[C@H](NC1=NS(=O)(=O)C(c2ccc(N3CCN(C)CC3)cc2)C(C)(C)O1)c1ccccc1F (stereo partly drawn) [Example 170, {6,6-Dimethyl-5-[4-(4-methyl-piperazin-1-yl)-phenyl]-4,4-dioxo-5,6-dihydro-4H-4lambda6-[1,4,3]oxathiazin-2-yl}-[(S)-1-(2-fluorophenyl)-ethyl]-amine] | 246
17 | C[C@H](NC1=NS(=O)(=O)C(c2ccc(C3CCN(C(C)(C)C)CC3)cc2)C(C)(C)O1)c1ccccc1F (stereo partly drawn) [Example 171, {5-[4-(1-tert-Butyl-piperidin-4-yl)-phenyl]-6,6-dimethyl-4,4-dioxo-5,6-dihydro-4H-4lambda6-[1,4,3]oxathiazin-2-yl}-[(S)-1-(2-fluorophenyl)-ethyl]-amine] | 108
18 | C[C@H](NC1=NS(=O)(=O)C(c2ccc(C3CCN(C4CC4)CC3)cc2)C(C)(C)O1)c1ccccc1F (stereo partly drawn) [Example 172, {5-[4-(1-Cyclopropyl-piperidin-4-yl)-phenyl]-6,6-dimethyl-4,4-dioxo-5,6-dihydro-4H-4lambda6-[1,4,3]oxathiazin-2-yl}-[(S)-1-(2-fluorophenyl)-ethyl]-amine] | 55
19 | C[C@H](NC1=NS(=O)(=O)C(c2ccc(-c3ccccc3CN(C)C)cc2)C(C)(C)O1)c1ccccc1F (stereo partly drawn) [Example 173, [5-(2′-Dimethylaminomethyl-biphenyl-4-yl)-6,6-dimethyl-4,4-dioxo-5,6-dihydro-4H-4lambda6-[1,4,3]oxathiazin-2-yl]-[(S)-1-(2-fluorophenyl)-ethyl]-amin] | 137
20 | C[C@H](NC1=NS(=O)(=O)[C@@H](c2ccc(-c3cccc(C(N)=O)c3)cc2)C(C)(C)O1)c1ccccc1F [Example 174, 4′-{(S)-2-[(S)-1-(2-fluorophenyl)-ethylamino]-6,6-dimethyl-4,4-dioxo-5,6-dihydro-4H-4lambda6-[1,4,3]oxathiazin-5-yl}-biphenyl-3-carboxamide] | 18
21 | C[C@H](NC1=NS(=O)(=O)[C@H](c2ccc(-c3cccc(C(N)=O)c3)cc2)C(C)(C)O1)c1ccccc1F [Example 175, 4′-{(R)-2-[(S)-1-(2-fluorophenyl)-ethylamino]-6,6-dimethyl-4,4-dioxo-5,6-dihydro-4H-4lambda6-[1,4,3]oxathiazin-5-yl}-biphenyl-3-carboxamide] | 20
22 | C[C@H](NC1=NS(=O)(=O)C(c2ccc(-c3cccc(C(N)=O)c3)nc2)C(C)(C)O1)c1ccccc1F (stereo partly drawn) [Example 176, 3-(5-{2-[(S)-1-(2-fluor-phenyl)-ethylamino]-6,6-odimethyl-4,4-dioxo-5,6-dihydro-4H-4lambda6-[1,4,3]oxathiazin-5-yl}-pyridin-2-yl)-benzamide] | 6
23 | C[C@H](NC1=NS(=O)(=O)[C@@H](c2ccc(-c3cncc(C(N)=O)c3)cc2)C(C)(C)O1)c1ccccc1F [Example 177, 5-(4-{(S)-2-[(S)-1-(2-fluorophenyl)-ethylamino]-6,6-dimethyl-4,4-dioxo-5,6-dihydro-4H-4lambda6-[1,4,3]oxathiazin-5-yl}-phenyl)-nicotinamide] | 17
24 | C[C@H](NC1=NS(=O)(=O)[C@H](c2ccc(-c3cncc(C(N)=O)c3)cc2)C(C)(C)O1)c1ccccc1F [Example 178, 5-(4-{(R)-2-[(S)-1-(2-fluorophenyl)-ethylamino]-6,6-dimethyl-4,4-dioxo-5,6-dihydro-4H-4lambda6-[1,4,3]oxathiazin-5-yl}-phenyl)-nicotinamide] | 3
25 | C[C@H](NC1=NS(=O)(=O)C(c2cccc(C3CCN(C)CC3)c2)C(C)(C)O1)c1ccccc1F (stereo partly drawn) [Example 179, {6,6-Dimethyl-5-[3-(1-methyl-piperidin-4-yl)-phenyl]-4,4-dioxo-5,6-dihydro-4H-4lambda6-[1,4,3]oxathiazin-2-yl}-[(S)-1-(2-fluorophenyl)-ethyl]-amine] | 34
26 | C[C@H](NC1=NS(=O)(=O)C(c2ccc(-c3cccc(C(N)=O)c3)nc2)C(C)(C)O1)c1ccccc1F (stereo partly drawn) [Example 180, 3-(5-{2-[(S)-1-(2-fluorophenyl)-ethylamino]-6,6-dimethyl-4,4-dioxo-5,6-dihydro-4H-41ambda6-[1,4,3]oxathiazin-5-yl}-pyridin-2-yl)-benzamide] | 10
27 | C[C@H](NC1=NS(=O)(=O)C(c2ccc(-c3cccc(C(N)=O)c3)nc2)C(C)(C)O1)c1ccccc1F (stereo partly drawn) [Example 181, 3-(5-{2-[(S)-1-(2-fluorophenyl)-ethylamino]-6,6-dimethyl-4,4-dioxo-5,6-dihydro-4H-4lambda6-[1,4,3]oxathiazin-5-yl}-pyridin-2-yl)-benzamide] | 7
